# Key:
# uterine leiomyomata [1] = test: Clinical study of 2.5 mg mifepristone for the treatment of uterine leiomyomata (Example 1); type: in vivo, human; conditions: 2.5 mg daily, three months
# Protocol: The study was conducted at a single site in Rochester, N.Y. Subjects: Inclusion criteria for the study included that subjects be (i) female; (ii) 18 years of age to premenopausal; and (iii) willing and able to give informed consent and comply with study requirements; and have (i) at least moderate symptoms of menorrhagia and/or pelvic pain/pressure; (ii) a total uterine volume greater than or equal to 160 cubic centimeters (cc) by ultrasound measurement; (iii) at least one leiomyomata ≧2.5 cm in size; (iv) a score of equal to or greater than 39 on the Uterine Fibroid Symptom and Quality of Life Scale; (v) declined standard treatment options for symptomatic leiomyomata; and (vi) agreed to use a barrier method (condoms, diaphragms) or other effective non-hormonal method of contraception (abstinence, sterilization) throughout participation in the study. Exclusion criteria for the study included: (i) current or planned pregnancy during the study period; (ii) menopausal, as indicated by follicle-stimulating hormone (FSH) level of the reference laboratory; (iii) currently breast-feeding; (iv) untreated abnormal pap smear; (v) presence of conditions other than leiomyomata contributing to pain and/or bleeding; (vi) hemoglobin […]; (vii) presence of […] masses or tenderness requiring further evaluation or surgery; (viii) grade III or IV hydronephrosis by ultrasound; (ix) severe, active mental disorder; […] (xi) current or recent (within the last three months) use of oral systemic corticosteroids, hormones (including estrogens, progestins, oral contraceptives), danazol, anticoagulants, or herbal or botanical supplements with possible hormonal effects; (xii) use within the past six months of GnRH analogs or Depo-Provera®; and (xiii) current or planned use during the study of any of the following medications or products: ketoconazole, itraconazole, erythromycin, grapefruit juice, rifampin, St. John's Wort, phenytoin, phenobarbital or carbamazepine Primary recruitment of subjects occurred through direct advertising and physician referrals. Women who were successfully prescreened were contacted by telephone and invited to an screening session/orientation. Prospective subjects were provided with a verbal and written description of the study and requirements for participation. Written informed consent was obtained from each participant at the screening session/orientation, and medical record releases were obtained and reviewed by the project gynecologist. Participants who gave consent were assigned a study ID number and asked to proceed further with the screening session. […] During the screening session the following information was collected: Physical Examination: Height, weight, blood pressure, pulse readings, examination of the breasts, heart, lungs, abdomen, and complete gynecologic examination including bi-manual at screening session/orientation (baseline). Height, weight, blood pressure, pulse readings and examination of the breasts. Blood samples: Negative pregnancy test and normal liver function testing (ALT, AST), hemoglobin and FSH levels. Ultrasonography: All subjects underwent abdominal and vaginal ultrasonography and uterine artery and leiomyomata blood flow assessment. Specifically, uterine leiomyomata size was assessed by transabdominal and/or transvaginal sonography by a single, certified and experienced ultrasonographer. Combined abdominal and vaginal ultrasonography was the standard for assessing leiomyomata size. […]
# [2] = test system: breakthrough uterine bleeding in new starters of DMPA; test: Mifepristone for prevention of breakthrough bleeding in new starters of DMPA (Example 9); type: in vivo, human; conditions: 50 mg capsule every 14 days with DMPA
# uterine leiomyomata [3] = test: Randomized, double-blinded, placebo-controlled study of mifepristone 5 mg daily for symptomatic uterine leiomyomata (Example 11); type: in vivo, human
# Description: The Study and Results are described in […] et al., Obstetrics & Gynecology, 108(6) (2006), hereby incorporated by reference in its entirety. […] Women were excluded if they were pregnant or intended to become pregnant during the next 6 months or had major medical morbidity or severe anemia, active mental illness, elevated liver enzymes, or substance abuse. Participants agreed to use barrier contraception and not to use hormonal or surgical treatments for leiomyomata during the course of the trial. Analgesic use was permitted. […] Secondary measures included global health status (Medical Outcomes 36-item Short Form [SF-36] survey) and global pain (McGill Pain Questionnaire). Each questionnaire was administered at baseline, 1 month, 3 months, and 6 months, except the McGill Pain Questionnaire, which was assessed monthly. Bleeding was assessed by using daily menstrual logs and pictorial bleeding charts. A monthly blood loss index was calculated from menstrual history by assigning values […] to each day of spotting, indicating light, moderate, and heavy flow, respectively, and then summing the results. Monthly assessments of the presence and intensity of likely leiomyoma symptoms (including pelvic pain, pelvic pressure, bladder pressure, urinary frequency, low back pain, rectal pain, and pain with intercourse) and drug adverse effects (including hot flushes, headache, nausea, vomiting, mood swings, diarrhea, decreased libido, weakness, fatigue, and nervousness) were performed with a standardized instrument consisting of 5-point Likert scale items. […] The uterus was measured in three planes and a total volume calculated. The five largest leiomyomata were identified, a volume calculated for each of the leiomyomata, and the results summed. Baseline uterine volume was subtracted from each subsequently measured uterine volume, and volume changes were analyzed. The final analysis was powered to detect a 25-point difference in mean Uterine Fibroid Symptom Quality of Life scores. Differences in Uterine Fibroid Symptom Quality of Life scores, ultrasound measures, bleeding, pain, and other longitudinal measures were assessed by using individual growth curve models. […] Approximate t tests were used to test hypotheses of between-group and within-group differences in outcomes.
# uterine leiomyomata [4] = conditions: cited from earlier work
# [5] = test system: endometrial receptors and breakthrough bleeding; conditions: women on Norplant, mifepristone orally; Cheng et al.; cited from earlier work
# [6] = biological target: glucocorticosteroid receptor (GR) (Homo sapiens, UniProt P04150); conditions: cited from earlier work
# Chain of glucocorticosteroid receptor (GR) (P04150 whole entry): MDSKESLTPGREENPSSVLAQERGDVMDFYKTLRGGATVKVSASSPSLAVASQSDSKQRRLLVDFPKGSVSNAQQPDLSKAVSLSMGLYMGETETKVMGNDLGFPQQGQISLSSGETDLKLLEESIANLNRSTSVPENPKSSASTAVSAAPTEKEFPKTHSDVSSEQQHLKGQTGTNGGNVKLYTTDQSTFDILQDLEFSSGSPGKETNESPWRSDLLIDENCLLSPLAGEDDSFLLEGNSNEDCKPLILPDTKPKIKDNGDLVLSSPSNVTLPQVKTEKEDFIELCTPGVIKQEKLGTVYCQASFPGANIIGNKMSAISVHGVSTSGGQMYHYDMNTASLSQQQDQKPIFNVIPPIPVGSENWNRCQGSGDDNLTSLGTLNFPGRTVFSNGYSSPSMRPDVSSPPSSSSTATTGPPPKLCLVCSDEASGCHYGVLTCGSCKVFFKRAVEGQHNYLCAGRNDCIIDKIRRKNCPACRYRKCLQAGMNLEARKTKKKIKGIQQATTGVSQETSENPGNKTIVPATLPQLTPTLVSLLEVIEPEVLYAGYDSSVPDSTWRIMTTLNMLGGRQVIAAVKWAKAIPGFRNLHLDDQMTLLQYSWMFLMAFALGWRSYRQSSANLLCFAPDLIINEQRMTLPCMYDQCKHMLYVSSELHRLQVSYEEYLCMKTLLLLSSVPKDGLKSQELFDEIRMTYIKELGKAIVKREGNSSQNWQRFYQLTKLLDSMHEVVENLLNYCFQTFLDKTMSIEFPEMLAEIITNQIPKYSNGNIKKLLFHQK
structure (smiles),measurement,setting,value
"CC#C[C@]1(O)CC[C@H]2[C@@H]3CCC4=CC(=O)CCC4=C3[C@@H](c3ccc(N(C)C)cc3)C[C@@]21C [mifepristone, 17-hydroxy-11-(4-dimethylaminophenyl)-17-(prop-1-ynyl)estra-4,9-dien-3-one]",amenorrhea,uterine leiomyomata [1],all subjects became amenorrheic
same,mean decrease in leiomyomata volume,uterine leiomyomata [1],26%
same,mean decrease in uterine volume,uterine leiomyomata [1],19%
same,mean leiomyomata volume (aggregated) after treatment,uterine leiomyomata [1]; baseline 187,139
same,mean uterine volume after treatment,uterine leiomyomata [1]; baseline 795 cc,653 cc
same,median percentage days of bleeding,"[2]; 1232 women-days, placebo 30%, p<0.05, results to date",11%
same,adverse events,[2]; to date,no adverse events have occurred
same,period in which most of the improvement in symptoms and quality of life occurred,"uterine leiomyomata [3]; 5 mg daily for 26 weeks, first weeks of treatment",8-12 weeks
same,SF-36 subscales,"uterine leiomyomata [3]; 5 mg daily, 6 months","improvements in energy and fatigue, health status change, and pain"
same,endometrial hyperplasia or other significant endometrial pathology,"uterine leiomyomata [3]; 5 mg daily, 6 months",No endometrial hyperplasia or other significant endometrial pathology was observed
same,liver function,"uterine leiomyomata [3]; 5 mg daily, 6 months",None of the participants showed abnormal liver function
same,reduction in leiomyoma size vs placebo,"uterine leiomyomata [3]; 5 mg daily, 6 months",statistically significant differences in reduction in leiomyoma size
same,"leiomyoma-specific quality of life and aspects (concern, activities, energy and mood, control, self-consciousness, sexual functioning) vs placebo","uterine leiomyomata [3]; 5 mg daily, 6 months, P<0.001 overall",Significant improvements
same,average decrease of uterine volume,"uterine leiomyomata [3]; 5 mg daily, 6 months, P=0.02, placebo increased 73 mL",200 mL
same,"pain, McGill Pain Questionnaire","uterine leiomyomata [3]; 5 mg daily, 6 months, difference to placebo not statistically significant",decreases in pain
same,mean hemoglobin level after treatment,"uterine leiomyomata [3]; 5 mg daily, 6 months, from 12.0 g/dL, P<0.001",13.5 g/dL
same,potential medication adverse effects,"uterine leiomyomata [3]; 5 mg daily, 6 months, incidence and severity not statistically different from placebo",uncommon
same,tolerability,"uterine leiomyomata [3]; 5 mg daily, 6 months, low dropout rate",well tolerated
same,bleeding,"uterine leiomyomata [3]; 5 mg daily, 6 months, not in placebo group",decreased markedly
same,mean Uterine Fibroid Symptoms Quality of Life increase,"uterine leiomyomata [3]; 5 mg daily, 6 months, of a possible 100 points, range 0-86, placebo 16.7",50.1 points
same,"mean Uterine Fibroid Symptoms Quality of Life increase, percent","uterine leiomyomata [3]; 5 mg daily, 6 months, placebo 41%",135%
same,average decrease of uterine volume adjusted for individual baseline volume,"uterine leiomyomata [3]; 5 mg daily, 6 months, secondary regression, placebo increased 10%",47%
same,cystic glandular dilatation of the endometria,"uterine leiomyomata [3]; 5 mg daily, 6 months, treated women vs placebo",Higher rates
same,women anemic (hemoglobin below 12.0 g/dL) after six months,"uterine leiomyomata [3]; 5 mg daily, 2 of 22, baseline 11 of 22 (50%), control 60%",9%
same,women amenorrheic by the sixth month,"uterine leiomyomata [3]; 5 mg daily, 9 of 22 women, none in placebo group",41%
same,symptom severity score at 6 months,"uterine leiomyomata [3]; 5 mg daily, from 67 at baseline, placebo 67 to 50",21
same,"monthly reports of symptoms (pelvic pain, pelvic pressure, bladder pressure, urinary frequency, low back pain, rectal pain, pain with intercourse)","uterine leiomyomata [3]; 5 mg daily, group difference significant only for pain with intercourse (P<0.05)",all showed improvements
same,effectiveness,"uterine leiomyomata [4]; 5 mg administered for 6 months, Eisinger et al.",confirmed the effectiveness
same,uterine leiomyomata size,uterine leiomyomata [4]; Eisinger et al. 2003,reduce uterine leiomyomata size
same,uterine shrinkage and rates of amenorrhea compared with GnRH agonists,"uterine leiomyomata [4]; Kettel et al., Murphy et al.",equivalent amount of uterine shrinkage and rates of amenorrhea to GnRH agonists
same,side effects of the lower described doses,uterine leiomyomata [4]; doses such as 10 mg,increased hot flashes
same,side effects of the highest described doses,uterine leiomyomata [4]; doses such as 50 mg,"can increase the prevalence and severity of hot flashes, can cause an elevation in hepatic enzymes"
same,breakthrough bleeding,[5],decreased breakthrough bleeding
same,endometrial estrogen receptor concentration,[5],increased endometrial estrogen receptor concentration
same,endometrial progesterone receptor concentration,[5],decreased endometrial progesterone receptor concentration
same,affinity for the glucocorticosteroid receptor (GR),[6],high affinity

# Reference: patent US8173626B2, “Methods, dosing regimens and medications using anti-progestational agents for the treatment of disorders” (Danco Laboratories LLC, priority 2006, dated 2012)
